Key:
[1] = Oxidative metabolic stability in murine microsomes; conditions: for CLint scaled at 0.8 µM: mouse, microsomes
[2] = target: DCN1-UBE2M interaction (Homo sapiens, UniProt Q96GG9); test: biochemical; assay type: binding; conditions: for Activity in TR-FRET binding assay, in words: maximum tested concentration 15 μM, values in Supplementary Tables
[3] = test system: HCC95 cells; conditions: dose-response up to 30 μM, 5 hours
[4] = target: T1, DCN4 (Homo sapiens, UniProt Q92564); test: Pulse-chase assay of NEDD8 transfer, DCN4 stimulated; assay type: biochemical; conditions: 10 μM; NEDD8 transfer from UBE2M to CUL2
T1 sequence (Q92564 1-292): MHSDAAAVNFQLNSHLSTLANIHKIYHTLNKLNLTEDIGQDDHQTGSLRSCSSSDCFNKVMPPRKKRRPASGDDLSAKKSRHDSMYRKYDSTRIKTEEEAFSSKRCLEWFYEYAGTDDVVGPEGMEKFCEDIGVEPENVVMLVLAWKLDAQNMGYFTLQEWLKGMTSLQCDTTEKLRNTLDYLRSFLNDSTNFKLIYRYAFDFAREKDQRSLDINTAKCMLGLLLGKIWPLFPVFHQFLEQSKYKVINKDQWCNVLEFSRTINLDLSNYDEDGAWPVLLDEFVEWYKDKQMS

[5] = target: T2, DCN3 (Homo sapiens, UniProt Q8IWE4); test: Pulse-chase assay of NEDD8 transfer, DCN3 stimulated; assay type: biochemical; conditions: 10 μM; NEDD8 transfer from UBE2M to CUL2
T2 sequence (Q8IWE4 1-304): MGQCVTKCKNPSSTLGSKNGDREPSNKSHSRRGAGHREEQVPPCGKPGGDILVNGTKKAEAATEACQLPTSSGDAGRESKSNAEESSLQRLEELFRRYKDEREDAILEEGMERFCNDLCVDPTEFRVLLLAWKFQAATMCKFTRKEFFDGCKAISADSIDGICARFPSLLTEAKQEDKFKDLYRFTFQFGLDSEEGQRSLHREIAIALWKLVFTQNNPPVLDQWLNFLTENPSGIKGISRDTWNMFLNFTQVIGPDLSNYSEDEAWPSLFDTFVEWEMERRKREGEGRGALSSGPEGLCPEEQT

[6] = target: T3, DCN5 (Homo sapiens, UniProt Q9BTE7); test: Pulse-chase assay of NEDD8 transfer, DCN5 stimulated; assay type: biochemical; conditions: 10 μM; NEDD8 transfer from UBE2M to CUL2
T3 sequence (Q9BTE7 1-237): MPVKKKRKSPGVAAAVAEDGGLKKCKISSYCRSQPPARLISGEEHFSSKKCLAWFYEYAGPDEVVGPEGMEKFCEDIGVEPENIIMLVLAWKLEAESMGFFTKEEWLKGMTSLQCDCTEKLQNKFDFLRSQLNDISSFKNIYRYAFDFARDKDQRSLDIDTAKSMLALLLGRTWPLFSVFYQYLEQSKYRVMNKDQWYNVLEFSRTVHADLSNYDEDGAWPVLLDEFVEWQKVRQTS

[7] = target: DCN2 (Homo sapiens, UniProt Q6PH85); test: Pulse-chase assay of NEDD8 transfer, DCN2 stimulated; assay type: biochemical; conditions: 10 μM; NEDD8 transfer from UBE2M to CUL2
[8] = test system: cullin neddylation in CAL33 cells; conditions: 10 μM (MLN4924 1 μM), 48 hours, most pronounced on CUL1 and CUL3
[9] = test system: cullin neddylation in HCC95 cells; conditions: 10 μM (MLN4924 1 μM), 48 hours, most pronounced on CUL1 and CUL3

Sequence of DCN1-UBE2M interaction (Q96GG9 whole entry): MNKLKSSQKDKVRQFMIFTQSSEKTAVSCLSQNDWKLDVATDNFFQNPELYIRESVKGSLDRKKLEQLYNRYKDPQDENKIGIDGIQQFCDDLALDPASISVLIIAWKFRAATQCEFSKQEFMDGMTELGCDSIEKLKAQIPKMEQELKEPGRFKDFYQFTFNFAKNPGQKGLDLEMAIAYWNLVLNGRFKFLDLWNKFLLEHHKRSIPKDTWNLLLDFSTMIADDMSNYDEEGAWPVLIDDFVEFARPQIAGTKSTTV
Sequence of DCN2 (Q6PH85 whole entry): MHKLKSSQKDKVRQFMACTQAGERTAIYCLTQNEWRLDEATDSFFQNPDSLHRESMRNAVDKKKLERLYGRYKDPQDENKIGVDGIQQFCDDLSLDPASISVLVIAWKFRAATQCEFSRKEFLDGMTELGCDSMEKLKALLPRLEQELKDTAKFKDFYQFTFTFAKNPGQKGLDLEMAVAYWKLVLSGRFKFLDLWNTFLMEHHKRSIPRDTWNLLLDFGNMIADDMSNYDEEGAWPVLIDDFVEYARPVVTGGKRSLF

## Cc1cccc(C(=O)N[C@@H]2C(=O)Nc3c(c(C)nn3-c3ccccc3)[C@@H]2c2ccc(F)cc2)c1 (racemic) [Compound 3]
[1]
  CLint scaled at 0.8 µM: 50.3 ± 5 mL/min/kg
[1]; murine microsomes, relative to NAcM-OPT
  Murine microsomal stability compared with that previously reported for NAcM-OPT: ≤ 2 fold

## Cc1cccc(C(=O)N[C@@H]2C(=O)Nc3c(c(C)nn3C3CCCC3)[C@@H]2c2ccc(F)cc2)c1 (racemic) [Compound 24]
[1]
  CLint scaled at 0.8 µM: 116 ± 10.7 mL/min/kg

## CCn1nc(C)c2c1NC(=O)[C@@H](NC(=O)c1cccc(C)c1)[C@H]2c1ccc(F)cc1 (racemic) [Compound 65]
[2]
  Activity in TR-FRET binding assay, in words: roughly equipotent to the phenyl derivative (3)
[1]
  CLint scaled at 0.8 µM: 89.7 ± 4.7 mL/min/kg

## Cc1cccc(C(=O)N[C@H]2C(=O)Nc3c(c(C)nn3-c3ccccc3)[C@@H]2c2ccc(F)cc2)c1 (racemic) [Compound 87, N-((4S,5R)-4-(4-fluorophenyl)-3-methyl-6-oxo-1-phenyl-4,5,6,7-tetrahydro-1H-pyrazolo[3,4-b]pyridin-5-yl)-3-methylbenzamide]
[3]
  Effect on reactive oxygen species (DCFDA): neither 27, 87, nor NAcM-OPT have any measurable effects on reactive oxygen species
[2]
  Activity in TR-FRET binding assay, in words: inactive

## Cc1ccc([C@H]2c3c(C)nn(-c4ccccc4)c3NC(=O)[C@H]2NC(=O)c2cccc(C)c2)cc1 (relative stereo) [Compound 1, 3-methyl-N-(rel-(4S,5S)-3-methyl-6-oxo-1-phenyl-4-(p-tolyl)-4,5,6,7-tetrahydro-1H-pyrazolo[3,4-b]pyridin-5-yl)benzamide]
[1]
  CLint scaled at 0.8 µM: 160 ± 5 mL/min/kg

## CCN1C(=O)[C@@H](NC(=O)c2cccc(C)c2)[C@@H](c2ccc(F)cc2)c2c(C)nn(-c3ccccc3)c21 (relative stereo) [Compound 27, N-(rel-(4S,5S)-7-ethyl-4-(4-fluorophenyl)-3-methyl-6-oxo-1-phenyl-4,5,6,7-tetrahydro-1H-pyrazolo[3,4-b]pyridin-5-yl)-3-methylbenzamide]
[4]
  Inhibition of DCN4 stimulated cullin neddylation (pulse-chase): not inhibited
[5]
  Inhibition of DCN3 stimulated cullin neddylation (pulse-chase): not inhibited
[6]
  Inhibition of DCN5 stimulated cullin neddylation (pulse-chase): not inhibited
[7]
  Inhibition of DCN2 stimulated cullin neddylation (pulse-chase): inhibiting
[1]
  CLint scaled at 0.8 µM: 44.9 ± 3.7 mL/min/kg

## Cc1nn(-c2ccccc2)c2c1[C@H](c1ccc(F)cc1)[C@H](NC(=O)c1cccc(C(F)(F)F)c1)C(=O)N2 [Compound 11]
[2]
  IC50: 3.5 ± 0.5 µM

## Cc1cccc(NC(=O)[C@@H]2C(=O)Nc3c(c(C)nn3-c3ccccc3)[C@@H]2c2ccc(F)cc2)c1 [Compound 128]
[2]
  Activity in TR-FRET binding assay, in words: not tolerated

## Cc1nn(-c2ccccc2)c2c1[C@H](c1ccc(F)cc1)[C@H](C(=O)Nc1ccc(Cl)c(Cl)c1)C(=O)N2 [Compound 131]
[2]
  Activity in TR-FRET binding assay, in words: not tolerated

## NS(=O)(=O)OC[C@@H]1C[C@@H](n2ccc3c(N[C@H]4CCc5ccccc54)ncnc32)C[C@@H]1O [MLN4924]
[8]
  Inhibition of steady-state cullin neddylation (immunoblot), CAL33: complete blockade of neddylation
[9]
  Inhibition of steady-state cullin neddylation (immunoblot), HCC95: complete blockade of neddylation

## CCCCN1CCC(N(Cc2ccccc2)C(=O)Nc2ccc(Cl)c(Cl)c2)CC1 [NAcM-OPT, reference compound]
[3]
  Effect on reactive oxygen species (DCFDA): neither 27, 87, nor NAcM-OPT have any measurable effects on reactive oxygen species

Reference: publication PMC7228038 (Journal of medicinal chemistry, 2019)
